From patent publication US7183100B2, “Aconitase” (priority 2003, dated 2007)

Legend:
[1] = tested on: acnC disrupted strain (PA01*); assay: Growth on various carbon sources; type: cell-based, P. aeruginosa; details: substance used as carbon source
Description: (§1) When tested for growth on various carbon sources, no difference was observed when glucose, glutamate, citrate, isocitrate, succinate, acetate, pyruvate, butyrate, hexonate, or glyoxalate was used as a carbon source.

FRD1 [2] = assay: Reversal of propionate growth inhibition by TCA intermediates in M9 minimal media; type: cell-based, P. aeruginosa; details: 0.4% propionate
Description: This effect was tested by supplementing M9 minimal media with various TCA cycle components in the presence of 0.4% propionate.

FRD1 [3] = assay: Effect of ibuprofen on growth of FRD1 (absorbance at 600 nm); type: cell-based, P. aeruginosa; details: Pseudomonas aeruginosa, 2 ml LB cultures, read-out: percent inhibition of growth
Description: Ibuprofen is known to generate propionic acid when metabolized and was thus tested for its ability to inhibit the growth of FRD1. Other propionate-generating compounds include certain α4β1 integrin antagonists described by DuPlantier, A. J., et al., Bioorg. Med. Chem. Let. (2001) 11:2593–2596. Using absorbance at 600 nm as the criterion, growth inhibition was detected at a concentration of 0.5 mg/ml of ibuprofen added to 2 ml LB cultures; the percent inhibition at this level was 19%. Inhibition increased in a dose-dependent manner to 72% at 5 mg/ml, and was similar at 10 mg/ml (73%).

wildtype PA01 [4] = assay: Propionate inhibition of growth; type: cell-based, P. aeruginosa; details: 0.4% propionate
Description: (§2) FRD1 is much more susceptible to propionate inhibition than wildtype PA01. While PA01 is able to grow on 0.4% propionate, inhibition of FRD1 growth occurs at levels of 0.1% propionate and inhibition is complete as low as 0.2% propionate in the medium.

FRD1 [5] = assay: Propionate inhibition of growth; type: cell-based, P. aeruginosa; details: in the medium
Description: as §2

PA01 [6] = assay: Effect of propionate on antibiotic susceptibility (antibiotic discs); type: cell-based, P. aeruginosa; details: 0.2% propionate; amikacin, carbenicillin, ciprofloxacin, tobramycin, tetracycline discs
Description: (§3) The effect of various concentrations of propionate on the ability of antibiotics to curtail the growth of PA01 or FRD1 was tested. Levels of 0.2% propionate appeared to have no effect on PA01 growth in the presence of the antibiotics amikacin, carbenicillin, ciprofloxacin, tobramycin, and tetracycline. Growth was assured by the diameter of colonies formed in the presence of discs containing amikacin (AN-30), 30 μg, carbenicillin (CB-100), 100 μg, ciprofloxacin (CIP-5), 5 μg, tobramycin (NN-10), 10 μg, or tetracycline (TE-30), 30 μg.

FRD1 [7] = assay: as above; type: cell-based, P. aeruginosa; details: 0.2% propionate
Description: as §3

FRD1 cells = assay: Attachment of cells to plastic tubes (absorbance at 570 nm); type: cell-based, P. aeruginosa; details: as low as 0.1% propionate
Description: (§4) As mucoid production is necessary for attachment, the effect on mucoid production of addition of propionate can be tested by assessing the level of attachment of the cells to plastic tubes. This was measured as the absorbance at 570 nm of plastic tubes.

PA01 [8] = assay: as above; type: cell-based, P. aeruginosa; details: compared with FRD1
Description: as §4

[9] = tested on: FRD1 with disrupted aconitase C gene; assay: Growth on propanediol with added propionic acid; type: cell-based, P. aeruginosa; details: propanediol medium
Description: (§5) In addition to PA01, an additional mucosal strain, FRD1 with gentamicin resistance was subjected to disruption of the acnC gene, as was a mucoid clinical isolate. For comparison, aconitase A was also similarly disrupted. All of the strains behaved similarly in respect to their ability to grow on propanediol in the presence and absence of propionic acid.

[10] = tested on: PA01 with disrupted aconitase C gene; assay: Growth on propanediol with added propionic acid; type: cell-based, P. aeruginosa; details: propanediol medium
Description: as §5

PA01* [11] = assay: Growth in TSBD plus 100 μM iron medium with propionate; type: cell-based, P. aeruginosa; details: 0.05% propionate, with and without 50 mM glutamate, FIG. 3
PA01 wildtype = assay: Growth on various carbon sources; type: cell-based, P. aeruginosa; details: substance used as carbon source
Description: as §1

mucoid clinical isolates = assay: Effect of propionate on growth of mucoid clinical isolates; type: cell-based; details: low concentrations of propionate, FIG. 4, vs non-mucoid BH1 and revertant BAB
wildtype PA01 [12] = assay: Growth in LB medium with 0.4% propionate; type: cell-based, P. aeruginosa
Description: (§6) The effect of the addition of 0.4% propionate to LB medium containing wildtype PA01, PA01*, and the more sensitive mucoid strain FRD1, was also tested.

PA01* [13] = assay: Growth in LB medium with 0.4% propionate; type: cell-based, P. aeruginosa
Description: as §6

FRD1 [14] = assay: Growth in LB medium with 0.4% propionate; type: cell-based, P. aeruginosa
Description: as §6

[15] = tested on: PA01, FRD1 and mucoid clinical isolate strains (acnC or acnA disrupted); assay: Growth on propanediol as carbon source; type: cell-based, P. aeruginosa; details: all strains
Description: as §5

In the case of `N[C@@H](CCC(=O)O)C(=O)O` [glutamate], the “difference in growth between wildtype and acnC disrupted strain” value (“difference” below) [1] is reported as “no difference” and the “reversal of negative effects of propionate on growth” value (from here on “reversal”) (FRD1 [2]) is reported as “successful”.

In the case of `CC(C)Cc1ccc(C(C)C(=O)O)cc1` (stereo not drawn) [ibuprofen, Ibuprofen], the inhibition at 500 µg/mL (FRD1 [3]; 0.5 mg/ml) is reported as 19%, the inhibition at 5000 µg/mL (FRD1 [3]; 5 mg/ml) is reported as 72% and the inhibition at 10000 µg/mL (FRD1 [3]; 10 mg/ml) is reported as 73%.

In the case of `CCC(=O)O` [propionate, propionic acid], the growth on propionate (wildtype PA01 [4]) is reported as “able to grow”, the “propionate level at which inhibition of growth is complete” value (FRD1 [5]) is reported as 0.2% and the “propionate level at which inhibition of growth occurs” value (FRD1 [5]) is reported as 0.1%. The “effect on growth in the presence of antibiotics” value (PA01 [6]) was “no effect”, the “effect on growth inhibition by antibiotics” value (FRD1 [7]; CB-100 and CIP-5 discs) was “diminish the effect” and the “effect on efficiency of antibiotics” value (FRD1 [7]; remaining antibiotics (amikacin, tobramycin, tetracycline)) was “little, if any, effect”. The “effect on attachment to plastic tubes” value (FRD1 cells) was “diminish significantly”, the “effect on attachment to plastic tubes” value (PA01 [8]) was “less dramatic” and the “ability to grow after addition of propionic acid” value [9] was “completely abolished”. The “ability to grow after addition of propionic acid” value [10] was “completely abolished”, the “growth as compared to wildtype” value (PA01* [11]) was “growth is diminished” and the “growth of acnC disrupted strain on carbon source” value [1] was “did not grow”. For the same molecule, the “growth of wildtype on carbon source” value (PA01 wildtype) was “grow well”, the growth inhibition (mucoid clinical isolates) was “substantial growth inhibition” and the response of growth (wildtype PA01 [12]) was “does not respond”. For the same molecule, the response of growth (PA01* [13]) was “diminished growth” and the response of growth (FRD1 [14]) was “diminished growth”.

In the case of `CCCCCC(=O)O` [hexanoate, hexanoic acid], the “difference” value [1] is reported as “no difference”.

In the case of `O=CC(=O)O` [glyoxalate], the “difference” value [1] is reported as “no difference”.

`O=C(O)CC(O)C(=O)O` (stereo not drawn) [malate] was tested, and the “reversal” value (FRD1 [2]) was “successful”.

With `CC(=O)O` [acetate] the “difference” value [1] was “no difference” and the “reversal” value (FRD1 [2]) was “successful”.

For `CC(O)CO` (stereo not drawn) [1,2-propanediol], the “ability to grow on carbon source” value [15] was “able to grow”.

In the case of `O=C(O)CC(O)(CC(=O)O)C(=O)O` [citrate], the “difference” value [1] is reported as “no difference”.

In the case of `CCCCC(=O)O` [pentanoate, pentanoic acid], the “growth of acnC disrupted strain on carbon source” value [1] is reported as “did not grow” and the “growth of wildtype on carbon source” value (PA01 wildtype) is reported as “grow well”.

In the case of `O=C(O)CCC(=O)O` [succinate], the “difference” value [1] is reported as “no difference”.

With `OCCCO` [1,3-propanediol] the “ability to grow on carbon source” value [15] was “less able to grow”.
